Test results: patent US20170107212A1, “NOVEL COMPOUNDS” (Bayer Pharma Aktiengesellschaft, priority 2014, published 2017)

Tests used:
[1] = tested on: constitutive active colorectal cancer cell (CRC) Wnt pathway, HCT116 TOPFlash; assay: Cellular reporter assay, HCT116 Super TopFlash (constitutive active Wnt pathway), luciferase expression; assay type: cell-based; settings: Homo sapiens, HCT-116, 36 h, HCT116 Super TopFlash reporter cells, 36 hours incubation, dilution series 50 μM to 15 nM
Outline: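 HCT116 cells stably carrying Super TopFlash (β-catenin ΔS45, constitutive Wnt) run in parallel with FOP control line; compounds 50 μM to 15 nM (3.16-fold) in CAFTY buffer pH 7.4 with 2 mM Ca2+, 0.01% BSA, 36 h at 37 °C. Luciferase luminescence read as Wnt activity.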

HCT116 FOPFlash = assay: Control reporter assay, HCT116 FOP control vector (non-functional TCF elements), luciferase expression; assay type: cell-based; settings: Homo sapiens, HCT-116, 36 h, HCT116 FOP control reporter cells, 36 hours incubation, dilution series 50 μM to 15 nM
Outline: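 Stable HCT116 cells carrying FOP vector (randomized non-functional TCF sites) plus pcDNA3, run in parallel with TOP line; compounds 50 μM to 15 nM (3.16-fold steps) added in CAFTY buffer pH 7.4 with 2 mM Ca2+, 0.01% BSA. Incubated 36 h at 37 °C, 5% CO2; luciferase luminescence read.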

Frizzled1 = settings: according to WO 2011/035321 (A1); cited from earlier work
Dishevelled-2 protein = settings: according to WO 2011/035321 (A1); cited from earlier work
[2] = tested on: Wnt3A-stimulated R-catenin stabilization; settings: according to WO 2011/035321 (A1); cited from earlier work
[3] = tested on: LEF/TCF reporter activity; settings: Wnt3A-stimulated; according to WO 2011/035321 (A1); cited from earlier work

| SMILES | IC50 [1] [µM] | IC50 (HCT116 FOPFlash) [µM] | Frizzled1 internalization (endocytosis) (Frizzled1) | Dishevelled-2 protein regulation (Dishevelled-2 protein) | Wnt3A-stimulated R-catenin stabilization [2] | LEF/TCF reporter activity [3] |
| --- | --- | --- | --- | --- | --- | --- |
| Nc1ccc(-c2nnc(NC(=O)c3ccc(OC4CC4)c(NC(=O)CN4CCOCC4)c3)s2)cn1 [Example 119, N-[5-(6-aminopyridin-3-yl)-1,3,4-thiadiazol-2-yl]-4-(cyclopropyloxy)-3-[(morpholin-4-ylacetyl)amino]benzamide] | ≥ 50 | ≥ 50 | – | – | – | – |
| O=C(Nc1ccc([N+](=O)[O-])cc1Cl)c1cc(Cl)ccc1O [niclosamide] | – | – | promotes Frizzled1 internalization (endocytosis) | down regulates Dishevelled-2 protein | inhibits | inhibits |
